One test concerns TEAD-dependent transcription. Kind of test: TEAD-dependent transcription cell-based reporter assay (MSTO-211H+12XGTIIC luciferase). Also noted: species or system human. As to conditions: Homo sapiens; MSTO-211H+12XGTIIC cell line, luciferase signal normalized to cell viability, 24 hours compound incubation; read-out: MSTO-211H GMean IC50 (uM) Cell Assay Reporter Cell Variant: TEAD. The procedure, abridged:
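MSTO-211H mesothelioma cells stably carrying a 12xGTIIC TEAD-response-element luciferase reporter, treated with serial compound dilutions for 24 h at 37 °C. Luminescence normalized to CellTiter-Fluor viability signal; % inhibition versus DMSO and 20 μM K-975 controls, IC50 by nonlinear regression.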
For the molecule `O=C(Cc1cnc[nH]1)N1CCc2ccc(Oc3ccc(C(F)(F)F)c(F)c3)cc2C1` [P-0150, 1-(7-(3-fluoro-4-(trifluoromethyl)phen-oxy)-3,4-dihydroisoquin-olin-2(1H)-yl)-2-(1H-imidazol-5-yl)ethan-1-one], the IC50 lay in the range of 0.001 to 10 µM.
With `O=C(CCc1cnc[nH]1)N1CCc2ccc(Oc3ccc(C(F)(F)F)c(F)c3)cc2C1` [P-0151, 1-(7-(3-fluoro-4-(trifluoromethyl)phen-oxy)-3,4-dihydroisoquin-olin-2(1H)-yl)-3-(1H-imidazol-5-yl)propan-1-one], the IC50 lay within 0.001 to 10 µM.
With `O=C(Cc1ncc[nH]1)N1CCc2ccc(Oc3ccc(C(F)(F)F)c(F)c3)cc2C1` [P-0152, 1-(7-(3-fluoro-4-(trifluoromethyl)phen-oxy)-3,4-dihydroisoquin-olin-2(1H)-yl)-2-(1H-imidazol-2-yl)ethan-1-one], the 50% inhibitory concentration (IC50) lay within 0.001 to 10 µM.
The same measure, in the same setting: to `O=C(CCn1cncn1)N1CCc2ccc(Oc3ccc(C(F)(F)F)c(F)c3)cc2C1` [P-0153, 1-(7-(3-fluoro-4-(trifluoromethyl)phen-oxy)-3,4-dihydroisoquin-olin-2(1H)-yl)-3-(1H-1,2,4-triazol-1-yl)propan-1-one] belongs 0.001 to 10 µM; to `C=CC(=O)Nc1nc(CC(=O)N2CCc3ccc(Oc4ccc(C(F)(F)F)c(F)c4)cc3C2)cs1` [P-0154, N-(4-(2-(7-(3-fluoro-4-(trifluoromethyl)phen-oxy)-3,4-dihydroisoquin-olin-2(1H)-yl)-2-oxoeth-yl)thiazol-2-yl)acrylamide], 0.001 to 10 µM; to `Nc1nc(CC(=O)N2CCc3ccc(Oc4ccc(C(F)(F)F)c(F)c4)cc3C2)cs1` [P-0155, 2-(2-aminothiazol-4-yl)-1-(7-(3-fluoro-4-(trifluoromethyl)phen-oxy)-3,4-dihydroisoquin-olin-2(1H)-yl)ethan-1-one], 0.001 to 10 µM.
`CN(C)C(N1CCc2ccc(Oc3ccc(C(F)(F)F)cc3)cc2C1)=[N+](C)C` [P-0156, N-((dimethylamino)(7-(4-(trifluoromethyl)phen-oxy)-3,4-dihydroisoquin-olin-2(1H)-yl)methylene)-N-methylmethanaminium]: the IC50 was in the range of 0.001 to 10 µM.
Take `C=CS(=O)(=O)N1CC(C(=O)N2CCc3ccc(Oc4ccc(C(F)(F)F)c(F)c4)cc3C2)C1` [P-0157, (7-(3-fluoro-4-(trifluoromethyl)phenoxy)-3,4-dihydroisoquinolin-2(1H)-yl)(1-(vinylsulfonyl)azetidin-3-yl)methanone]: the IC50 fell in the range of 0.001 to 10 µM.
In the case of `C=CS(=O)(=O)N1CCC(C(=O)N2CCc3ccc(Oc4ccc(C(F)(F)F)c(F)c4)cc3C2)C1` (stereo not drawn) [P-0158, (7-(3-fluoro-4-(trifluoro-methyl)phenoxy)-3,4-dihydroisoquinolin-2(1H)-yl)(1-(vinylsul-fonyl)pyrrolidin-3-yl)-methanone], the IC50 fell in the range of 0.001 to 10 µM.
Take `C=CS(=O)(=O)N1CCC(C(=O)N2CCc3ccc(Oc4ccc(C(F)(F)F)c(F)c4)cc3C2)CC1` [P-0159]: the half-maximal inhibitory concentration (IC50) lay in the range of 0.001 to 10 µM.
`O=C(Cc1n[nH]c(=O)[nH]1)N1CCc2ccc(Oc3ccc(C(F)(F)F)c(F)c3)cc2C1` [P-0160, 5-(2-(7-(3-fluoro-4-(trifluoromethyl)phen-oxy)-3,4-dihydroisoquin-olin-2(1H)-yl)-2-oxoeth-yl)-2,4-dihydro-3H-1,2,4-triazol-3-one]: the half-maximal inhibitory concentration (IC50) fell in the range of 0.001 to 10 µM.
Consider `C=CC(=O)Nc1ncc(CC(=O)N2CCc3ccc(Oc4ccc(C(F)(F)F)c(F)c4)cc3C2)s1` [P-0163, N-(5-(2-(7-(3-fluoro-4-(trifluoromethyl)phen-oxy)-3,4-dihydroisoquin-olin-2(1H)-yl)-2-oxoeth-yl)thiazol-2-yl)acrylamide], for which the IC50 was in the range of 0.001 to 10 µM.
On to `O=C(Cc1c[nH]cn1)N1CCc2ccc(Oc3ccc(C(F)(F)F)cc3)cc2C1` [P-0164, 2-(1H-imidazol-4-yl)-1-(7-(4-(trifluoromethyl)-phenoxy)-3,4-dihydroiso-quinolin-2(1H)-yl)ethan-1-one], for which the IC50 lay in the range of 0.001 to 10 µM.
As to `O=C(Cc1ncc[nH]1)N1CCc2ccc(Oc3ccc(C(F)(F)F)cc3)cc2C1` [P-0165, 2-(1H-imidazol-2-yl)-1-(7-(4-(trifluoromethyl)-phenoxy)-3,4-dihydroiso-quinolin-2(1H)-yl)ethan-1-one], the concentration for half-maximal inhibition (IC50) lay within 0.001 to 10 µM.
As to `O=C=CCC(=O)N1CCc2ccc(Oc3ccc(C(F)(F)F)cc3)cc2C1` [P-0166, 4-(7-(4-(trifluoromethyl)-phenoxy)-3,4-dihydroiso-quinolin-2(1H)-yl)but-1-ene-1,4-dione], the IC50 is 0.001 to 10 µM.
Still for that read-out and setting: the same measure for `CC(=O)N1CC(CC2c3cc(Oc4ccc(C(F)(F)F)cc4)ccc3CCN2C(=O)CCS(C)(=O)=O)C1` (stereo not drawn) [P-0200, 1-(1-((1-acetylazetidin-3-yl)methyl)-7-(4-(trifluoromethyl)phen-oxy)-3,4-dihydroisoquin-olin-2(1H)-yl)-3-(methyl-sulfonyl)propan-1-one]: 0.001 to 10 µM.
For `CS(=O)(=O)CCC(=O)N1CCc2ccc(Oc3ccc(C(F)(F)F)cc3)cc2C1CC1CN(c2ccccn2)C1` (stereo not drawn) [P-0201, 3-(methylsulfonyl)-1-(1-((1-(pyridin-2-yl)azeti-din-3-yl)methyl)-7-(4-(trifluoromethyl)phen-oxy)-3,4-dihydroisoquin-olin-2(1H)-yl)propan-1-one], the IC50 is 0.001 to 10 µM.
For `CS(=O)(=O)CCC(=O)N1CCc2ccc(Oc3ccc(C(F)(F)F)cc3)cc2C1CC1CN(C(=O)CO)C1` (stereo not drawn) [P-0202, 1-(1-((1-(2-hydroxyacet-yl)azetidin-3-yl)methyl)-7-(4-(trifluoromethyl)-phenoxy)-3,4-dihydro-isoquinolin-2(1H)-yl)-3-(methylsulfonyl)-propan-1-one], the half-maximal inhibitory concentration (IC50) was in the range of 0.001 to 10 µM.
Same read-out and setting: to `CC(=O)N1CCC(C2c3cc(Oc4ccc(C(F)(F)F)cc4)ccc3CCN2C(=O)CCS(C)(=O)=O)C1` (stereo not drawn) [P-0203, 1-(1-(1-acetylpyrrolidin-3-yl)-7-(4-(trifluorometh-yl)phenoxy)-3,4-dihydro-isoquinolin-2(1H)-yl)-3-(methylsulfonyl)-propan-1-one] belongs 0.001 to 10 µM; to `CS(=O)(=O)CCC(=O)N1CCc2ccc(Oc3ccc(C(F)(F)F)cc3)c(Br)c2C1` [P-0205, 1-(8-bromo-7-(4-(trifluoromethyl)phen-oxy)-3,4-dihydroisoquin-olin-2(1H)-yl)-3-(methyl-sulfonyl)propan-1-one], 0.001 to 10 µM.
For `CS(=O)(=O)CCC(=O)N1CCc2ccc(Oc3ccc(C(F)(F)F)cc3)c(-c3cnn(CC4CC4)c3)c2C1` [P-0206, 1-(8-(1-(cyclopropyl-methyl)-1H-pyrazol-4-yl)-7-(4-(trifluorometh-yl)phenoxy)-3,4-dihydro-isoquinolin-2(1H)-yl)-3-(methylsulfonyl)-propan-1-one], the IC50 lay in the range of 0.001 to 10 µM.
For `CS(=O)(=O)CCC(=O)N1CCc2ccc(Oc3ccc(C(F)(F)F)cc3)c(-c3ccc(C4CC4)nc3)c2C1` [P-0207, 1-(8-(6-cyclopropylpyr-idin-3-yl)-7-(4-(trifluoro-methyl)phenoxy)-3,4-dihydroisoquinolin-2(1H)-yl)-3-(methylsul-fonyl)propan-1-one], the IC50 fell in the range of 0.001 to 10 µM.
On the same count and under the same terms, to `CS(=O)(=O)CCC(=O)N1CCc2ccc(Oc3ccc(C(F)(F)F)cc3)c(-n3cc(C(F)(F)F)cn3)c2C1` [P-0208, 3-(methylsulfonyl)-1-(8-(4-(trifluoromethyl)-1H-pyrazol-1-yl)-7-(4-(trifluoromethyl)phen-oxy)-3,4-dihydroisoquin-olin-2(1H)-yl)propan-1-one] belongs 0.001 to 10 µM; to `CCC1c2cc(Oc3ccc(C(F)(F)F)cc3)ccc2CCN1C(=O)CCS(C)(=O)=O` (stereo not drawn) [P-0209, 1-(1-ethyl-7-(4-(trifluoro-methyl)phenoxy)-3,4-dihydroisoquinolin-2(1H)-yl)-3-(methylsul-fonyl)propan-1-one], 0.001 to 10 µM; to `CS(=O)(=O)CCC(=O)N1CCc2ccc(Oc3ccc(C(F)(F)F)cc3)cc2C1C1CCN(C(=O)C2CC2)CC1` (stereo not drawn) [P-0210, 1-(1-(1-(cyclopropanecarbonyl)piperidin-4-yl)-7-(4-(trifluoromethyl)phenoxy)-3,4-dihydroisoquinolin-2(1H)-yl)-3-(methylsulfonyl)propan-1-one], 0.001 to 10 µM.
On the same count and under the same terms, to `CS(=O)(=O)CCC(=O)N1CCc2ccc(Oc3ccc(C(F)(F)F)cc3)cc2C1C1CCOCC1` (stereo not drawn) [P-0211, 3-(methylsulfonyl)-1-(1-(tetrahydro-2H-pyran-4-yl)-7-(4-(trifluorometh-yl)phenoxy)-3,4-dihydro-isoquinolin-2(1H)-yl)-propan-1-one] belongs 0.001 to 10 µM; to `CS(=O)(=O)CCC(=O)N1CCc2ccc(Oc3ccc(C(F)(F)F)cc3)cc2C1C1CCC(C(F)(F)F)CC1` (stereo not drawn) [P-0212, 3-(methylsulfonyl)-1-(1-(4-(trifluoromethyl)-cyclohexyl)-7-(4-(trifluoromethyl)phen-oxy)-3,4-dihydroisoquin-olin-2(1H)-yl)propan-1-one], 0.001 to 10 µM; to `CC(=O)N1CCC(c2c(Oc3ccc(C(F)(F)F)cc3)ccc3c2CN(C(=O)CCS(C)(=O)=O)CC3)CC1` [P-0213, 1-(8-(1-acetylpiperidin-4-yl)-7-(4-(trifluorometh-yl)phenoxy)-3,4-dihydro-isoquinolin-2(1H)-yl)-3-(methylsulfonyl)pro-pan-1-one], 0.001 to 10 µM.
In the case of `CC(=O)N1CC=C(c2c(Oc3ccc(C(F)(F)F)cc3)ccc3c2CN(C(=O)CCS(C)(=O)=O)CC3)CC1` [P-0214, 1-(8-(1-acetyl-1,2,3,6-tetrahydropyridin-4-yl)-7-(4-(trifluoromethyl)-phenoxy)-3,4-dihydroiso-quinolin-2(1H)-yl)-3-(methylsulfonyl)propan-1-one], the half-inhibitory concentration (IC50) fell in the range of 10 to 100 µM.

The test is the same for the next values; noted with them: MSTO-211H+12XGTIIC cell line, luciferase signal normalized to cell viability, 24 hours compound incubation; read-out: MSTO-211H GMean IC50 (uM) Cell Assay Reporter Cell Variant: TEAD.
For `CC(=O)N1CCC(C2c3cc(Oc4ccc(C(F)(F)F)cc4)ccc3CCN2C(=O)CCS(C)(=O)=O)C1` (stereo not drawn) [P-0204, 1-(1-(1-acetylpyrrolidin-3-yl)-7-(4-(trifluorometh-yl)phenoxy)-3,4-dihydro-isoquinolin-2(1H)-yl)-3-(methylsulfonyl)-propan-1-one], the IC50 lay in the range of 0.001 to 10 µM.

Values taken from patent US20250129028A1, “COMPOUNDS AND METHODS FOR YAP/TEAD MODULATION AND INDICATIONS THEREFOR” (Opna Bio SA, priority 2022, published 2025).
